Data on 6 molecules can be found in US12173018B2, “Penicillin-binding protein inhibitors” (priority 2018, dated 2024).

In one assay the test system is N. gonorrhoeae FA19. Nature of the assay: Liquid broth MIC, N. gonorrhoeae FA19. Type of assay: cell-based. To be noted: Neisseria gonorrhoeae; N. gonorrhoeae FA19, liquid broth; read-out: Minimum Inhibitory Concentration, N. gonorrhoeae FA19. The essentials: (§1)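 Broth microdilution, 2-fold compound series; start inoculum 5×10^5 CFU/mL (OD600-adjusted, GC broth pH 7.2, Kellogg's suppl.). 40-42 h, 36° C, 5% CO2. MIC = lowest conc., no visible growth.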

A further assay deals with E. coli AG100. Nature of the assay: Broth microdilution MIC, E. coli AG100 (wild-type parent). It counts as cell-based. The following applies: Escherichia coli. The procedure, abridged: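 Broth microdilution in cation-supplemented Mueller-Hinton broth, 2-fold serial compound dilutions, inoculum 5×10^5 CFU/mL from 3-5 h log culture.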
The next assay has as its system E. coli AG100A. Nature of the assay: microbe, parasite or virus in culture. It counts as cell-based. To be noted: Escherichia coli, read-out: MIC E. coli AG100A. The essentials:
(§2)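 Colonies from Mueller Hinton II agar were grown 3-5 hours at 37° C in cation-supplemented broth, adjusted by OD600, then added to 2-fold compound dilutions at 5×10^5 CFU/mL. After 16-20 hours at 37° C, MICs were scored visually.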

For a further assay, the system named is K. pneumoniae UMM. Nature of the assay: microbe, parasite or virus in culture. To be noted: Klebsiella pneumoniae, read-out: MIC K. pneumoniae UMM. Type of assay: cell-based. The essentials:
as §2

Another assay has as its system E. coli D22. Nature of the assay: microbe, parasite or virus in culture. It counts as cell-based. The following applies: Escherichia coli. The essentials: as §2
Another assay concerns K. pneumoniae SI-117. Nature of the assay: microbe, parasite or virus in culture. It counts as cell-based. To be noted: Klebsiella pneumoniae, SI117, read-out: MIC K. pneumoniae SI-117. The essentials:
as §2

For a further assay, the system named is E. coli 901C. The assay can be described thus: microbe, parasite or virus in culture. It counts as cell-based. The following applies: Escherichia coli, read-out: MIC E. coli 901C. The essentials:
as §2

The test system of another assay is N. gonorrhoeae WHO F. The assay can be described thus: Liquid broth MIC, N. gonorrhoeae WHO F. It counts as cell-based. To be noted: Neisseria gonorrhoeae; N. gonorrhoeae WHO F, liquid broth; read-out: Minimum Inhibitory Concentration, N. gonorrhoeae WHO F. The procedure, abridged: as §1
The subject of the next assay is K. pneumoniae 848844. The assay can be described thus: microbe, parasite or virus in culture. Type of assay: cell-based, Klebsiella pneumoniae. The essentials:
as §2

Another assay concerns E. coli ATCC 25922. The assay can be described thus: Broth microdilution MIC, E. coli ATCC 25922. Type of assay: cell-based. The following applies: Escherichia coli, ATCC25922; E. coli ATCC 25922, broth microdilution; read-out: MIC E. coli 25922. The procedure, abridged: as §2
(In general: Dilution methods test growth across graded concentrations, often in twofold steps.)

In assay [1] the test system is N. gonorrhoeae ATCC 49226. Nature of the assay: Liquid broth MIC, N. gonorrhoeae ATCC 49226. It counts as cell-based. To be noted: Neisseria gonorrhoeae, ATCC49226; N. gonorrhoeae ATCC 49226, liquid broth; read-out: Minimum Inhibitory Concentration, N. gonorrhoeae ATCC 49226. The essentials:
as §1

Where [2] appears, read: wild-type parent E. coli AG100, broth microdilution, read-out: MIC E. coli AG100.
[3] abbreviates: K. pneumoniae UMM producing SHV-5 and KPC-2.
[4] abbreviates: hyper-permeable E. coli D22, broth microdilution, read-out: MIC E. coli D22.
Where [5] appears, read: hyper-permeable E. coli 901C, broth microdilution.
Where [6] appears, read: Klebsiella pneumoniae, K. pneumoniae 848844 producing SHV-11 and KPC-2, read-out: MIC K. pneumoniae 848844.

In brackets after ≈: the same amount, converted by molar mass. Like-named read-outs stand apart in the source and are kept apart here. Where only a bound is given, the exact number is not on record here.

As for `CCN1CCN(C(=O)NC(C(=O)N[C@H]2Cc3ccc(F)c(C(=O)O)c3OB2O)c2csc(N)n2)C(=O)C1=O` (stereo partly drawn) [Example 109, (3R)-3-(2-(2-aminothiazol-4-yl)-2-(4-ethyl-2,3-dioxopiperazine-1-carboxamido)acetamido)-7-fluoro-2-hydroxy-3,4-dihydro-2H-benzo[e][1,2]oxaborinine-8-carboxylic acid], the MIC in the assay on N. gonorrhoeae FA19 lay within 4 to 8 µg/mL (≈ 7.3 to 14.6 µM); in the assay on E. coli AG100 (setting [2]), 8 to 16 µg/mL; in the assay with E. coli AG100A, 8 to 16 µg/mL; with K. pneumoniae UMM (setting [3]), 8 to 16 µg/mL; with E. coli D22 (setting [4]), 2 to 4 µg/mL; in the assay with K. pneumoniae SI-117, 8 to 16 µg/mL. Moreover, the MIC in the assay on E. coli 901C (setting [5]) lay in the range of 0.5 to 1 µg/mL; in the assay on N. gonorrhoeae WHO F it was 0.25 to 0.5 µg/mL (≈ 0.456 to 0.912 µM); with K. pneumoniae 848844 (setting [6]), 32 to 64 µg/mL; with E. coli ATCC 25922, 8 to 16 µg/mL; in assay [1] it was 1 to 2 µg/mL (≈ 1.82 to 3.65 µM).
Consider `CCN1CCN(C(=O)NC(C(=O)N[C@H]2Cc3cccc(C(=O)O)c3OB2O)c2ccc(B(O)O)cc2)C(=O)C1=O` (some centres unmarked) [Example 112], for which the MIC is 1 to 2 µg/mL (≈ 1.81 to 3.62 µM) in the assay on N. gonorrhoeae FA19; 32 to 64 µg/mL with E. coli AG100 (AG100, read-out: MIC E. coli AG100); 2 to 4 µg/mL with E. coli AG100A; 32 to 64 µg/mL in the assay on K. pneumoniae UMM; 2 to 4 µg/mL in the assay with E. coli D22 (D22, read-out: MIC E. coli D22); more than 128 µg/mL in the assay on K. pneumoniae SI-117. The MIC in the assay on E. coli 901C (901C) is less than 0.25 µg/mL; in the assay with N. gonorrhoeae WHO F, less than 0.125 µg/mL; in the assay with K. pneumoniae 848844 (Klebsiella pneumoniae, 848844, read-out: MIC K. pneumoniae 848844) it was more than 128 µg/mL; in the assay on E. coli ATCC 25922 it was 32 to 64 µg/mL; in [1], 1 to 2 µg/mL (≈ 1.81 to 3.62 µM).
Turning to `O=C(O)c1cccc2c1OB(O)[C@@H](NC(=O)C(NC(=O)N1CCN(CCF)C(=O)C1=O)c1ccc(B(O)O)cc1)C2` (stereo partly drawn) [Example 113, (3R)-3-(2-(4-boronophenyl)-2-(4-(2-fluoroethyl)-2,3-dioxopiperazine-1-carboxamido)acetamido)-2-hydroxy-3,4-dihydro-2H-benzo[e][1,2]oxaborinine-8-carboxylic acid], the MIC with N. gonorrhoeae FA19 was 1 to 2 µg/mL (≈ 1.75 to 3.51 µM); in the assay on E. coli AG100 (setting [2]), 32 to 64 µg/mL; with E. coli AG100A, 2 to 4 µg/mL; with K. pneumoniae UMM (setting [3]), 32 to 64 µg/mL; in the assay with E. coli D22 (setting [4]) it was 8 to 16 µg/mL; in the assay on K. pneumoniae SI-117 it was more than 128 µg/mL. Also, the MIC with E. coli 901C (setting [5]) is less than 0.25 µg/mL; with N. gonorrhoeae WHO F, less than 0.125 µg/mL; with K. pneumoniae 848844 (setting [6]) it was more than 128 µg/mL; in the assay with E. coli ATCC 25922 it was 32 to 64 µg/mL; in assay [1], 1 to 2 µg/mL (≈ 1.75 to 3.51 µM).
As to `CCN1CCN(C(=O)NC(C(=O)N[C@H]2Cc3ccc(F)c(C(=O)O)c3OB2O)c2ccc(O)c(O)c2Cl)C(=O)C1=O` (stereo partly drawn) [Example 124, (3R)-3-(2-(2-chloro-3,4-dihydroxyphenyl)-2-(4-ethyl-2,3-dioxopiperazine-1-carboxamido)acetamido)-7-fluoro-2-hydroxy-3,4-dihydro-2H-benzo[e][1,2]oxaborinine-8-carboxylic acid], the MIC in the assay on N. gonorrhoeae FA19 fell in the range of 4 to 8 µg/mL (≈ 6.75 to 13.5 µM); in the assay on E. coli AG100 (setting [2]), 0.5 to 1 µg/mL; in the assay with E. coli AG100A, 0.5 to 1 µg/mL; in the assay with K. pneumoniae UMM (setting [3]) it was 8 to 16 µg/mL; in the assay with E. coli D22 (setting [4]), 0.5 to 1 µg/mL; in the assay on K. pneumoniae SI-117, 8 to 16 µg/mL. Moreover, the MIC with E. coli 901C (setting [5]) is less than 0.25 µg/mL; in the assay with N. gonorrhoeae WHO F, less than 0.125 µg/mL; with K. pneumoniae 848844 (setting [6]) it was more than 128 µg/mL; in the assay with E. coli ATCC 25922 it was 8 to 16 µg/mL; in assay [1], 1 to 2 µg/mL (≈ 1.69 to 3.37 µM).
Regarding `CCCN1CCN(C(=O)NC(C(=O)N[C@H]2Cc3ccc(F)c(C(=O)O)c3OB2O)c2ccc(O)c(O)c2Cl)C(=O)C1=O` (some centres unmarked) [Example 125], the MIC lay in the range of 16 to 32 µg/mL (≈ 26.4 to 52.7 µM) in the assay with N. gonorrhoeae FA19; 2 to 4 µg/mL with E. coli AG100 (setting [2]); 2 to 4 µg/mL with E. coli AG100A; 32 to 64 µg/mL in the assay with K. pneumoniae UMM (setting [3]); 0.5 to 1 µg/mL with E. coli D22 (setting [4]); 2 to 4 µg/mL with K. pneumoniae SI-117. Further, the MIC was 0.5 to 1 µg/mL in the assay on E. coli 901C (setting [5]), 0.25 to 0.5 µg/mL (≈ 0.412 to 0.824 µM) with N. gonorrhoeae WHO F, 2 to 4 µg/mL with E. coli ATCC 25922 and 4 to 8 µg/mL (≈ 6.59 to 13.2 µM) in assay [1].
For the molecule `O=C(O)c1c(F)ccc2c1OB(O)[C@@H](NC(=O)C(NC(=O)N1CCN(CCF)C(=O)C1=O)c1ccc(O)c(O)c1Cl)C2` (some centres unmarked) [Example 131], the MIC in the assay with N. gonorrhoeae FA19 was 4 to 8 µg/mL (≈ 6.55 to 13.1 µM); with E. coli AG100 (setting [2]) it was 8 to 16 µg/mL; with E. coli AG100A it was 2 to 4 µg/mL; in the assay on K. pneumoniae UMM (setting [3]) it was 8 to 16 µg/mL; in the assay with E. coli D22 (setting [4]), 2 to 4 µg/mL; in the assay with K. pneumoniae SI-117 it was 8 to 16 µg/mL. Also, the MIC in the assay with E. coli 901C (setting [5]) was in the range of 0.5 to 1 µg/mL; in the assay with N. gonorrhoeae WHO F it was 0.25 to 0.5 µg/mL (≈ 0.409 to 0.819 µM); with K. pneumoniae 848844 (setting [6]), 32 to 64 µg/mL; with E. coli ATCC 25922 it was 2 to 4 µg/mL; in assay [1], 4 to 8 µg/mL (≈ 6.55 to 13.1 µM).
